# Values joined by “and” are separate entries in the source; they are usually repeats but may differ in a detail not shown here. Equal values may be shown once.
# Assay: GC/MS of blood plasma sample: number of times of freezing and thawing (Table C)
# Assay type: physicochemical, human
# Details: detection intensity relative to 1 at 2 times, freezing and thawing 10 times
# Outline: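 Values express detection intensity as a ratio to the 2-cycle freeze-thaw sample (=1), compared with 4, 6 and 10 cycles. Healthy-donor EDTA plasma, cooled at ≤1 min or ≥5 min, spun at 4 °C, 3000 rpm, 15 min. Derivatised by methoxymation/trimethylsilylation; GC-MS/MS in MRM mode with electron ionization.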
row,Structure (SMILES),Rate of increase or decrease
1,O=C(O)/C=C\C(=O)O [Maleic acid],2.12

# Same assay, conditions: detection intensity, freezing and thawing 4 times vs 2 times
row,Structure (SMILES),Increase or decrease
1,O=C(CO)[C@H](O)[C@H](O)[C@H](O)CO [Psicose],Different from individual

# Same assay, conditions: detection intensity, freezing and thawing 10 times vs 2 times
row,Structure (SMILES),Increase or decrease
1,O=C(O)/C=C\C(=O)O [Maleic acid],Increase

# Same assay, conditions: different from individual to individual, individuals with decrease, relative to 1 at 2 times, freezing and thawing 4 times
row,Structure (SMILES),"Rate of increase or decrease (second value, decrease)"
1,O=C(CO)[C@H](O)[C@H](O)[C@H](O)CO [Psicose],0.70

# Same assay, conditions: different from individual to individual, individuals with increase, relative to 1 at 2 times, freezing and thawing 4 times
row,Structure (SMILES),"Rate of increase or decrease (first value, increase)"
1,O=C(CO)[C@H](O)[C@H](O)[C@H](O)CO [Psicose],1.77

# Assay: GC/MS of serum sample: number of times of freezing and thawing (Table I)
# Assay type: physicochemical, human
# Design: key to Rate of increase or decrease / Rate of increase or decrease (first value, increase): detection intensity relative to 2 freeze-thaw cycles = 1
# Details: detection intensity relative to 1 at 2 times; serum, GC/MS; freezing and thawing 4 times
# Outline: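 Detection intensities are ratios to the value after two freeze–thaw cycles, which is set as 1, compared against 4, 6 and 10 cycles. Analysis used methoxymation and trimethylsilylation derivatization, then GC/MS with EI ionization and multiple reaction monitoring on a BPX5 column. Serum came from blood held at room temperature and spun at 3500 rpm for 5 min.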
row,Structure (SMILES),Rate of increase or decrease
1,O=C(O)/C=C\C(=O)O [Maleic acid],2.62
2,O=C(CO)[C@H](O)[C@H](O)[C@H](O)CO [Psicose],0.54

# Same assay, conditions: detection intensity relative to 1 at 2 times; serum, GC/MS; freezing and thawing 6 times
row,Structure (SMILES),Rate of increase or decrease
1,O=C(CO)[C@H](O)[C@H](O)[C@H](O)CO [Psicose],1.30

# Same assay, conditions: detection intensity; serum, GC/MS; freezing and thawing 4 times vs 2 times
row,Structure (SMILES),Increase or decrease
1,O=C(O)/C=C\C(=O)O [Maleic acid],Increase
2,O=C(CO)[C@H](O)[C@H](O)[C@H](O)CO [Psicose],Decrease

# Same assay, conditions: detection intensity; serum, GC/MS; freezing and thawing 6 times vs 2 times
row,Structure (SMILES),Increase or decrease
1,O=C(CO)[C@H](O)[C@H](O)[C@H](O)CO [Psicose],Increase

# Assay: GC/MS of serum sample: time from blood collection to centrifugation (Table G)
# Assay type: physicochemical, human
# Details: detection intensity relative to 1 at 15 minutes, blood collection to centrifugation, after 4 hours
# Outline: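 Values express detection intensity as a ratio to the sample centrifuged 15 minutes after blood collection (taken as 1). Serum was derivatized by methoxymation and trimethylsilylation, then analysed by electron-ionization GC/MS using multiple reaction monitoring on a BPX5 column ramped from 60 to 330° C.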
row,Structure (SMILES),Rate of increase or decrease
1,O=C(O)/C=C\C(=O)O [Maleic acid],1.65

# Same assay, conditions: detection intensity relative to 1 at 15 minutes, blood collection to centrifugation, after 8 hours
row,Structure (SMILES),Rate of increase or decrease
1,O=C(CO)[C@H](O)[C@H](O)[C@H](O)CO [Psicose],0.65

# Same assay, conditions: detection intensity, blood collection to centrifugation, after 4 hours vs 15 minutes
row,Structure (SMILES),Increase or decrease
1,O=C(O)/C=C\C(=O)O [Maleic acid],Increase

# Same assay, conditions: detection intensity, blood collection to centrifugation, after 8 hours vs 15 minutes
row,Structure (SMILES),Increase or decrease
1,O=C(CO)[C@H](O)[C@H](O)[C@H](O)CO [Psicose],Decrease

# Assay: GC/MS of blood plasma sample: time from blood collection to cooling of blood (Table B)
# Assay type: physicochemical, human
# Design: key to Rate of increase or decrease / Rate of increase or decrease (first value, increase): detection intensity relative to 1 at cooling time ≤1 min
# Details: detection intensity, blood collection to cooling 5 minutes or more vs 1 minute or less
# Outline: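 Blood drawn at room temperature into EDTA tubes, mixed, then cooled at 4° C. within 1 minute or less versus 5 minutes or more before centrifugation (4° C., 3000 rpm, 15 minutes). Plasma was frozen, methoxymated and trimethylsilylated, and analysed by EI GC/MS in MRM mode. Values are detection intensity relative to the ≤1 minute condition.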
row,Structure (SMILES),Increase or decrease
1,O=C(O)/C=C\C(=O)O [Maleic acid],Different from individual
2,O=C(CO)[C@H](O)[C@H](O)[C@H](O)CO [Psicose],Different from individual

# Same assay, conditions: different from individual to individual, individuals with decrease, relative to 1 at 1 minute or less, collection to cooling 5 minutes
row,Structure (SMILES),"Rate of increase or decrease (second value, decrease)"
1,O=C(O)/C=C\C(=O)O [Maleic acid],0.54
2,O=C(CO)[C@H](O)[C@H](O)[C@H](O)CO [Psicose],0.43 and 0.27

# Same assay, conditions: different from individual to individual, individuals with increase, relative to 1 at 1 minute or less, collection to cooling 5 minutes
row,Structure (SMILES),"Rate of increase or decrease (first value, increase)"
1,O=C(O)/C=C\C(=O)O [Maleic acid],1.38
2,O=C(CO)[C@H](O)[C@H](O)[C@H](O)CO [Psicose],3.24 and 1.94

# Assay: GC/MS of serum sample: time from centrifugation to isolation (Table H)
# Assay type: physicochemical, human
# Design: key to Rate of increase or decrease / Rate of increase or decrease (first value, increase): detection intensity relative to 1 at 30 min centrifugation-to-isolation
# Details: detection intensity relative to 1 at 30 minutes, after 1 hour
# Outline: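 Values are GC/MS (EI, MRM) detection intensities of methoxymated/trimethylsilylated serum, normalised to 1 for the 30-min sample. Serum was isolated 30 min, 1 h or 6 h after room-temperature centrifugation (3500 rpm, 5 min) of blood.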
row,Structure (SMILES),Rate of increase or decrease
1,O=C(O)/C=C\C(=O)O [Maleic acid],1.43
2,O=C(CO)[C@H](O)[C@H](O)[C@H](O)CO [Psicose],0.57

# Same assay, conditions: detection intensity, after 1 hour vs 30 minutes
row,Structure (SMILES),Increase or decrease
1,O=C(O)/C=C\C(=O)O [Maleic acid],Increase
2,O=C(CO)[C@H](O)[C@H](O)[C@H](O)CO [Psicose],Decrease

# Assay: GC/MS of blood plasma sample: time from blood collection to centrifugation (Table A)
# Assay type: physicochemical, human
# Details: detection intensity relative to 1 at 15 minutes, blood collection to centrifugation, after 4 hours
# Outline: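 Read-out is MRM detection intensity by electron-ionization GC/MS on a BPX5 column after methoxymation and trimethylsilylation, expressed relative to a 15-minute collection-to-centrifugation interval. Plasma was prepared from EDTA blood held at 4° C and spun at 4° C, 3000 rpm for 15 minutes, then frozen.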
row,Structure (SMILES),Rate of increase or decrease
1,O=C(CO)[C@H](O)[C@H](O)[C@H](O)CO [Psicose],4.33

# Same assay, conditions: detection intensity, blood collection to centrifugation, after 4 hours vs 15 minutes
row,Structure (SMILES),Increase or decrease
1,O=C(O)/C=C\C(=O)O [Maleic acid],Different from individual
2,O=C(CO)[C@H](O)[C@H](O)[C@H](O)CO [Psicose],Increase

# Same assay, conditions: different from individual to individual, individuals with decrease, relative to 1 at 15 minutes, collection to centrifugation, after 4 hours
row,Structure (SMILES),"Rate of increase or decrease (second value, decrease)"
1,O=C(O)/C=C\C(=O)O [Maleic acid],0.47

# Same assay, conditions: different from individual to individual, individuals with increase, relative to 1 at 15 minutes, collection to centrifugation, after 4 hours
row,Structure (SMILES),"Rate of increase or decrease (first value, increase)"
1,O=C(O)/C=C\C(=O)O [Maleic acid],1.75
